# Test results reported in US20090156639A1, “COMPOSITIONS AND METHODS OF TREATMENT USING L-TYPE CALCIUM CHANNEL BLOCKERS AND CHOL[…]” (priority 2003, published 2009).
# Structures can show the parent of a compound that is named as a salt.
# Tested on: young adult male Sprague-Dawley rats
# Assay: Novel Object Recognition Memory test (hippocampus-dependent nonspatial memory task)
# Type: in vivo, rat
# Details: for % Exploration of the novel object: prior to training, test 24 hours after training, n=6; for approximate optimum dosage in the Novel Object Recognition Memory test: from dose response data (FIGS. 1, 2, 4)
# Procedure: The general procedure for compound evaluation in Novel Object Recognition Memory (Hippocampus-Dependent Nonspatial Memory Task) is as follows: • 1. The animals are transported in their home cages from the vivarium to a dimly lit (5-6 lux) training room and acclimated for approximately 45 minutes. • 2. The animals are than individually placed in the training/testing environment (an opaque plastic chamber, 61 cm×42 cm×37 cm with bedding on the floor) for 5 minutes of habituation. Thereafter, the animals are returned to their home cage.
# They remained in the testing room for approximately 15 minutes after the last animal is habituated before being returned to their colony room.
# For the memory test, the objects to be discriminated are a goblet (11 cm in height, 6.5 cm in diameter) and a conical candlestick holder (11 cm in height, 6 cm in diameter) made of green, nontransparent glass. There are multiple copies of each object used for training and testing. Object pairs are randomly assigned within and between conditions. For training, two identical objects are placed 8 cm from the sides of the two short walls of the chamber. • 4. The day after initial habituation, the animals are returned to the testing room and acclimated as described in Step 1. Drug and/or vehicle is then administered according to experimental design (i.p.: 263/8-gauge needle; or p.o.: 18-gauge needle) at an interval ranging from 24 hours prior to 24 hours post-training. The training procedure is begun by placing the animal, nose facing the wall, into the empty chamber at a position in the center of a long wall. After 1 minute of re-habituation, the animal is removed from the chamber and placed in a holding cage (45 cm×26 cm×20 cm) with bedding for a period of 10 seconds. During this delay, the training objects are placed in the chamber. The animal is then returned to the chamber for a 15-minute period of exploration. The animal's movements are observed via cameral located over the chamber and are recorded on videotape. After the training session, the animal is returned to its home cage. The objects are cleaned with an 85% EtOH solution. The animals remain in the testing room for approximately 15 minutes after the last animal is trained before being returned to their colony room. • 5. Following a delay interval (1 hour to several weeks, but usually 24 hours), the animals are again returned to the testing room and acclimated as described in Step 1. After this, individual animals are re-habituated to the empty chamber for 1 minute as was described in Step 4. For the test, two new objects are placed in the chamber: one is identical to the objects used during training, while the other is novel. The position of the novel object is randomized for each animal. The animals are allowed to actively explore until they accumulate a total of 60 seconds of exploration. During the test period, the amount of time spent exploring either the novel or the familiar object is recorded using R. E. Clark's V.P.C. program, which also signals when 60 seconds of exploration has been accumulated. The animal's movements are observed via a camera located over the chamber and are recorded on videotape. Any animal that fails to explore either object or to reach the set criterion within 15 minutes is excluded from analysis. After the test, the animals are returned to their home cage, and then to the colony room. The objects are cleaned with an 85% EtOH solution. • 6.
Compound,% Exploration of the novel object (donepezil 0.05 mg/kg i.p. alone (suboptimal dose) plus vehicle),approximate optimum dosage in the Novel Object Recognition Memory test,% Exploration of the novel object (Compound A 1.00 mg/kg i.p. alone (suboptimal dose) plus vehicle)
"COc1cc2c(cc1OC)C(=O)C(CC1CCN(Cc3ccccc3)CC1)C2 (racemic) [donepezil, (+/−) 2,3-dihydro-5,6-dimethoxy-2-[[1-(phenylmethyl)-4-piperidinyl]methyl]-IH-indene-1-one hydrochloride]",50%,~0.5 mg/kg,–
"COCCOC(=O)C1=C(C)NC(C)=C(C(=O)OC(C)C)C1c1cccc(C#N)c1Cl (single isomer, unassigned; (+)) [Compound A, (+) isopropyl 2-methoxyethyl 4-(2-chloro-3-cyano-phenyl)-1,4-dihydro-2,6-dimethylpyridine-3,5-dicarboxylate]",–,~10 mg/kg,50%
CC12CC3CC(C)(C1)CC(N)(C3)C2 [memantine],–,~1.0 mg/kg,–
